# Source: US20150181873A1, “HERBICIDE-RESISTANT SUNFLOWER PLANTS, POLYNUCLEOTIDES ENCODING HERBICIDE=RESISTANT ACETO HYDROXY ACID SYNTHASE LARGE SUBUNIT PROTEINS, AND METHODS OF USE” (NIDERA S.A., priority 2013, published 2015)
# Tested on: sunflower line GM1606 (A122T)
# Assay: Greenhouse imazapir dose response, GM1606
# Type: in vivo, Helianthus annuus
# Details: 14 DAT
# Method: A greenhouse study was conducted to quantify and contrast the imazapir sensivity of the mutants A122T and A205V in different genetic backgrounds at the whole plant level in sunflower. Seeds of the different sunflower lines that were used in this study were obtained under field conditions.
# Seeds were sown in Petri dishes and, after germination, plantlets were transplanted to pots of 10 cm of diameter in a potting media consisting of equal parts of vermiculite, soil and sand. Plants were grown in a greenhouse under natural light conditions supplemented with 400 W sodium halide lamps to provide a 16 hrs daylength. Day/night temperatures were 25 and 20° C., respectively. At the V2 stage 10 plants of each genotype were randomly assigned to each treatment consisting of […] imazapir doses (0, 40, 80, 160, 240, 320, 400 and 480 g ai/ha), and a zero-time biomass determination. Experiment was arranged as a randomized block design with a full factorial (sunflower line×treatment) arrangement of treatments and 10 replications.
# On the day of herbicide application ten plants of each genotype were cut at the cotyledonal node and dried at 60° C. for 48 hrs zero-time for dried weight determination. […] Height was determined as the distance between the cotyledonal node and the apex of each plant. For root biomass determination, each plant was taken from the pot and the potting media was washed out from the roots. Above ground biomass data from each line were converted to biomass accumulation after application by subtracting the appropriate average zero-time biomass from each sample. Dry biomass data were converted to percentages of the untreated control plants within each line to allow direct comparisons between groups.
structure (smiles),measurement,setting,value
"CC(C)C1(C)N=C(c2ncccc2C(=O)O)NC1=O (stereo not drawn) [Imazapyr, imazapyr]","biomass accumulation, % of untreated",0.5x (40 g ai/ha),100.0%
same,"plant height, % of untreated",0.5x (40 g ai/ha),97.0%
same,"root dry weight, % of untreated",0.5x (40 g ai/ha),100%
same,"biomass accumulation, % of untreated",1x (80 g ai/ha),100.0%
same,"plant height, % of untreated",1x (80 g ai/ha),95.7%
same,"root dry weight, % of untreated",1x (80 g ai/ha),100.0%
same,"biomass accumulation, % of untreated",2x (160 g ai/ha),97.6%
same,"plant height, % of untreated",2x (160 g ai/ha),95.2%
same,"root dry weight, % of untreated",2x (160 g ai/ha),92.5%
same,"biomass accumulation, % of untreated",3x (240 g ai/ha),95.4%
same,"plant height, % of untreated",3x (240 g ai/ha),95.7%
same,"root dry weight, % of untreated",3x (240 g ai/ha),85.2%
same,"biomass accumulation, % of untreated",4x (320 g ai/ha),90.5%
same,"plant height, % of untreated",4x (320 g ai/ha),94.1%
same,"root dry weight, % of untreated",4x (320 g ai/ha),87.0%
same,"biomass accumulation, % of untreated",5x (400 g ai/ha),85.3%
same,"plant height, % of untreated",5x (400 g ai/ha),94.3%
same,"root dry weight, % of untreated",5x (400 g ai/ha),88.1%
same,"biomass accumulation, % of untreated",6x (480 g ai/ha),83.0%
same,"plant height, % of untreated",6x (480 g ai/ha),91.4%
same,"root dry weight, % of untreated",6x (480 g ai/ha),69.5%
